The subject of series [1] is NIH-H. Description: Inhibition of inhibit anchorage-independent growth of […] NIH-H cells in soft agar by colony forming assay. It counts as functional, cell-based.
Series [2] has as its target Protein farnesyltransferase (Homo sapiens, UniProt P49354+P49356). Description: Inhibition of FTase (unknown origin) assessed as transfer of [H3]farnesyl from [H3]farnesyl pyrophosphate to trichloroacetic acid-precipitable HaRas-CVLS. It counts as protein-complex assay.
The nature of series [3]: AUC (0 to 6 hrs) in rat at 10 mg/kg. It counts as ADME, organism-based. To be noted: plasma. The arrangement: time < 6 hr, dose 10 mg/kg.
The nature of series [4]: Ratio of IC50 for […] NIH-H cells to IC50 for FTase (unknown origin).
Series [5] deals with Mus musculus. The series is described as follows: Antitumor activity in wap-ras transgenic mouse assessed as tumor stasis at 10 mg/kg bid for 4 weeks. Also on record: dose 10 mg/kg. It counts as functional, organism-based.
Series [6] is described as follows: Cmax in dog at 25 mg/kg, po. To be noted: in vivo. It counts as ADME, organism-based, Canis lupus familiaris. The arrangement: dose 25 mg/kg, route oral.
In series [7] the test system is Mus musculus. Description: Toxicity in wap-ras transgenic mouse assessed as change in body weight at 3 to 40 mg/kg bid for 4 weeks. It counts as organism-based. The arrangement: dose 3-40 mg/kg. To be noted: in vivo, 672 h.
Series [8] in a line: Oral bioavailability in rat at 10 mg/kg. The following applies: in vivo. It counts as ADME, organism-based.
In series [9] the test system is Mus musculus. Description: Antitumor activity in wap-ras transgenic mouse assessed as tumor regression at 25 to 40 mg/kg bid for 4 weeks. It counts as functional, organism-based.
A short description of series [10]: Oral bioavailability in mouse at 25 mg/kg. It counts as ADME, organism-based. The following applies: in vivo.
A short description of series [11]: Cmax in rat at 10 mg/kg, po. To be noted: in vivo. It counts as ADME, organism-based. Also on record: dose 10 mg/kg, route oral.
A short description of series [12]: Oral bioavailability in dog at 5 mg/kg. The following applies: in vivo. It counts as ADME, organism-based, Canis lupus familiaris.
For series [13], the system named is Mus musculus. Description: Antitumor activity in wap-ras transgenic mouse assessed as tumor growth inhibition and tumor regression administered bid for 4 weeks. It counts as functional, organism-based.
The nature of series [14]: AUC in dog at 25 mg/kg, po. It counts as ADME, organism-based, Canis lupus familiaris. The arrangement: dose 25 mg/kg, route oral. The following applies: plasma.
Series [15] is described as follows: Cmax in monkey at 25 mg/kg, po. It counts as ADME, organism-based, Macaca mulatta. The arrangement: dose 25 mg/kg, route oral. To be noted: rhesus monkey, in vivo.
Series [16] has as its system Mus musculus. Description: Antitumor activity in wap-ras transgenic mouse assessed as tumor growth inhibition at 3 mg/kg bid for 4 weeks. It counts as functional, organism-based. The arrangement: dose 3 mg/kg.
In series [17] the target is Cytochrome P450 3A4 (Homo sapiens, UniProt P08684). The series is described as follows: Inhibition of CYP3A4 (unknown origin). It counts as ADME.
Sequence of Cytochrome P450 3A4 (P08684 whole entry): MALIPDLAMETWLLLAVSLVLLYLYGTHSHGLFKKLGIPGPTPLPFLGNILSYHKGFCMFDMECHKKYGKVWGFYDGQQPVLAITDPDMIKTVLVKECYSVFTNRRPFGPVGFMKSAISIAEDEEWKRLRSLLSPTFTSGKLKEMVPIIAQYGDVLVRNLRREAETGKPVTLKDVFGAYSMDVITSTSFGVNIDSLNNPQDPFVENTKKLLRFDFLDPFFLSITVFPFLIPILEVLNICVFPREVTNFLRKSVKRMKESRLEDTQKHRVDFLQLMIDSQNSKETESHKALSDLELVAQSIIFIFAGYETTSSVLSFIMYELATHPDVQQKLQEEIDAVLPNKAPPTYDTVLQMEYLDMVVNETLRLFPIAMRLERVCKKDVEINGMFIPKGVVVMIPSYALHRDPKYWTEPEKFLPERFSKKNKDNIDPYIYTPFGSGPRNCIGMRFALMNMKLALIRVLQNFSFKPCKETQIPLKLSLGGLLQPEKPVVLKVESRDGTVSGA
The nature of series [18]: AUC in monkey at 25 mg/kg, po. It counts as ADME, organism-based, Macaca mulatta. Also on record: dose 25 mg/kg, route oral. To be noted: rhesus monkey, plasma.
Series [19] in a line: Cmax in mouse at 25 mg/kg, po. It counts as ADME, organism-based. Also on record: dose 25 mg/kg, route oral. To be noted: in vivo.
A short description of series [20]: AUC in mouse at 25 mg/kg, po. It counts as ADME, organism-based. Also on record: dose 25 mg/kg, route oral. To be noted: plasma.
Series [21] can be described thus: AUC in rat at 10 mg/kg, po. It counts as ADME, organism-based. The arrangement: dose 10 mg/kg, route oral. To be noted: plasma.
Series [22] in a line: Oral bioavailability in monkey at 5 mg/kg. It counts as ADME, organism-based, Macaca mulatta. To be noted: rhesus monkey, in vivo.

Active and inactive are the calls of the source. No cut-off for these calls is given here. Some results are limits rather than exact numbers.

In [1], `Cn1cncc1[C@](C)(O)C1=Cc2cccnc2[C@@H](N2CCN(C(=O)OC3(C)CCCCC3)CC2)c2ccc(Cl)cc21` displayed a 50% inhibitory concentration (IC50) of 45 nM.

Regarding `Cn1cncc1[C@](C)(O)C1=Cc2cccnc2[C@@H](N2CCN(C(=O)OC3CCCCC3)CC2)c2ccc(Cl)cc21`, the IC50 in series [1] stood at 6.2 nM; in series [2] it was 1.4 nM.

Take `Cn1cncc1C(C)(O)C1=Cc2cccnc2[C@@H](N2CCN(C(=O)OC(C)(C)C)CC2)c2ccc(Cl)cc21` (mixture of isomers): the figures for the IC50 in series [1] and in series [2] were 10 nM and 1.8 nM, respectively.

As to `CCC(O)(C1=Cc2cccnc2[C@@H](N2CCN(C(=O)OC(C)(C)C)CC2)c2ccc(Cl)cc21)c1cncn1C` (mixture of isomers), the IC50 in series [1] turned out to be 50 nM; in series [2], 5 nM.

With `Cn1cncc1[C@](C)(O)C1=Cc2cccnc2[C@@H](N2CCN(C(=O)OC(C)(C)C)CC2)c2ccc(Cl)cc21`, in series [3], the area under the curve AUC(0-t) at 6 h was 3.1 µM·h. For the same compound, the half-maximal inhibitory concentration (IC50) in series [1] was found to be 30 nM; in series [2], 2.6 nM.

On to `Cn1cncc1[C@@](C)(O)C1=Cc2cccnc2[C@@H](N2CCN(C(N)=O)CC2)c2ccc(Cl)cc21`, for which the IC50 in [1] is over 100 nM; in [2], 0.1 nM.

As for `Cn1cncc1[C@H](O)C1=Cc2cccnc2[C@@H](N2CCN(C(=O)OC(C)(C)C)CC2)c2ccc(Cl)cc21`, the 50% inhibitory concentration (IC50) in series [1] stood at 0.5 nM; in [2] it was 0.3 nM.

In the case of `Cn1cncc1[C@](C)(O)C1=Cc2cccnc2[C@@H](N2CCN(C(=O)NC(C)(C)C)CC2)c2ccc(Cl)cc21`, the figures for the IC50 in [1] and in [2] were 37 nM and 0.7 nM, respectively.

On to `Cn1cncc1[C@](C)(O)C1=Cc2cccnc2[C@@H](N2CCN(C(=O)NC3CCCCC3)CC2)c2ccc(Cl)cc21`, for which the figures for the IC50 in series [1] and in [2] were 1.7 nM and 0.4 nM, respectively.

As for `Cn1cncc1C(C)(O)[C@]12C[C@H]1c1cccnc1[C@@H](N1CCN(C(=O)OC(C)(C)C)CC1)c1ccc(Cl)cc12` (stereo partly specified), the IC50 is over 100 nM in series [1] and over 18 nM in series [2].

As to `CC(C)OC(=O)N1CCN([C@H]2c3ccc(Cl)cc3C([C@@](C)(O)c3cncn3C)=Cc3cccnc32)CC1`, the half-inhibitory concentration (IC50) stood at 10 nM in series [1] and 0.6 nM in series [2].

As to `Cn1cncc1[C@@](C)(O)C1=Cc2cccnc2[C@@H](N2CCN(C(=O)NC3CCCCC3)CC2)c2ccc(Cl)cc21`, the IC50 amounted to 0.9 nM in [1] and 0.1 nM in series [2].

As for `Cn1cncc1[C@@](C)(O)C1=Cc2cccnc2[C@@H](N2CCN(C(=O)OC3CCCCC3)CC2)c2ccc(Cl)cc21`, the IC50 in series [1] is 3.5 nM; in series [2], 1.7 nM.

Take `Cn1cncc1[C@@](C)(O)C1=Cc2cccnc2[C@@H](N2CCN(C(=O)OC3CCCC3)CC2)c2ccc(Cl)cc21`: the IC50 in [1] is 2 nM; in [2], 0.6 nM.

Take `Cn1cncc1C(=O)[C@]12C[C@H]1c1cccnc1[C@@H](N1CCN(C(=O)OC(C)(C)C)CC1)c1ccc(Cl)cc12`: the 50% inhibitory concentration (IC50) in [1] is 6 nM; in series [2] it was 3.2 nM.

For `CC(C)OC(=O)N1CCN([C@H]2c3ccc(Cl)cc3C([C@](C)(O)c3cncn3C)=Cc3cccnc32)CC1`, the IC50 in series [1] stood at 2 nM; in series [2] it was 0.2 nM.

For the compound `Cn1cncc1C(=O)C1=Cc2cccnc2[C@@H](N2CCN(C(=O)OC(C)(C)C)CC2)c2ccc(Cl)cc21`, the IC50 in series [2] was over 18 nM.

Turning to `Cn1cncc1C(C)(O)[C@@]12C[C@@H]1c1cccnc1[C@@H](N1CCN(C(=O)OC(C)(C)C)CC1)c1ccc(Cl)cc12` (stereo partly specified), in series [4], the “Ratio IC50” value is over 30. Also, the IC50 in [1] was 60 nM; in series [2] it was 1.9 nM.

For the compound `Cn1cncc1C(=O)[C@@]12C[C@@H]1c1cccnc1[C@@H](N1CCN(C(=O)OC(C)(C)C)CC1)c1ccc(Cl)cc12`, the 50% inhibitory concentration (IC50) in [1] came to 8 nM; in series [2], 3.2 nM.

With `Cn1cncc1[C@](C)(O)C1=Cc2cccnc2[C@@H](N2CCN(C(=O)Nc3ccc(C#N)cc3)CC2)c2ccc(Cl)cc21`, the half-inhibitory concentration (IC50) in series [1] was 4 nM; in series [2], 1.8 nM.

`Cn1cncc1[C@@](C)(O)C1=Cc2cccnc2[C@@H](N2CCN(C(=O)OC3(C)CCCCC3)CC2)c2ccc(Cl)cc21`: the values for the 50% inhibitory concentration (IC50) in series [1] and in [2] were 2 nM and 5.5 nM, respectively.

In the case of `Cn1cncc1[C@@H](O)C1=Cc2cccnc2[C@@H](N2CCN(C(=O)OC(C)(C)C)CC2)c2ccc(Cl)cc21`, in series [2], the half-inhibitory concentration (IC50) was found to be 12 nM.

Regarding `Cn1cncc1[C@@](C)(O)C1=Cc2cccnc2[C@@H](N2CCN(C(=O)NC(C)(C)C)CC2)c2ccc(Cl)cc21`, the results for the IC50 in series [1] and in series [2] were 5 nM and 0.9 nM, respectively.

As to `Cn1cncc1[C@](C)(O)C1=Cc2cccnc2[C@@H](N2CCN(C(N)=O)CC2)c2ccc(Cl)cc21`, the IC50 in [1] was over 100 nM; in series [2], over 20 nM.

For the compound `Cn1cncc1[C@](C)(O)C1=Cc2cccnc2[C@@H](N2CCN(C(=O)OC3CCCC3)CC2)c2ccc(Cl)cc21`, the values for the half-inhibitory concentration (IC50) in series [1] and in series [2] were 32 nM and 0.6 nM, respectively.

Regarding `Cn1cncc1[C@@](C)(O)C1=Cc2cccnc2[C@@H](N2CCN(C(=O)Nc3ccc(C#N)cc3)CC2)c2ccc(Cl)cc21`, the IC50 is 2 nM in [1] and 0.8 nM in series [2].

Regarding `Cn1cncc1[C@@](C)(O)C1=Cc2cccnc2[C@@H](N2CCN(C(=O)OC(C)(C)C)CC2)c2ccc(Cl)cc21`, the result in series [5] and in series [9] was Active. Besides, the highest concentration (Cmax) is 600 nM in [6], 1500 nM in series [11], 700 nM in [15] and 18000 nM in [19]. For the same compound, the Activity result in series [7] was “Non-toxic”; in [13] it was “Dose-dependent effect”. The bioavailability in [8], in [10], in [12] and in series [22] was 34% in each case. In addition, the AUC worked out at 1.8 µM·h in series [14], 3.2 µM·h in series [18], 82 µM·h in [20] and 8.4 µM·h in series [21]. Besides, the IC50 stood at 1.3 nM in series [1], 1.4 nM in series [2] and 300 nM in series [17]. For the same compound, the TGI result in series [16] was “Active”.

For the origin of these results see ChEMBL document CHEMBL3112503, “New class of azaheptapyridine FPT inhibitors as potential cancer therapy agents” (Bioorg Med Chem Lett, 2014).
